From article PMC7744773 (Redox Biology, 2020)

Molecular target: CrGSNOR1 (Chlamydomonas reinhardtii, UniProt A0A2K3D6R4)
Experiment: X-ray crystal structure, […] Å
Conditions: co-crystallised with 1 mM NAD^+, pH 8.5; cofactor-binding domain

Sequence of CrGSNOR1 (A0A2K3D6R4 1-378): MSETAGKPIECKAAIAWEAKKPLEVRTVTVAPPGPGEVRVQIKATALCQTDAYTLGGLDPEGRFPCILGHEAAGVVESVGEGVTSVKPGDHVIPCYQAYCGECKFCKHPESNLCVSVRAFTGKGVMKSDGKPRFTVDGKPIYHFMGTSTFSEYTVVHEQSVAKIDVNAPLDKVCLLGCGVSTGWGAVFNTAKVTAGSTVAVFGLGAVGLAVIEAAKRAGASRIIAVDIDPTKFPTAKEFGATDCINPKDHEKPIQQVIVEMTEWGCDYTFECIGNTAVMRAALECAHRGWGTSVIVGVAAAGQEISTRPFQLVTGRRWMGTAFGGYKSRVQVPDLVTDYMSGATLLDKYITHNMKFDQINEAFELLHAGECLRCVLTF

NC(=O)c1ccc[n+]([C@@H]2O[C@H](COP(=O)(O)OP(=O)(O)OC[C@H]3O[C@@H](n4cnc5c(N)ncnc54)[C@H](O)[C@@H]3O)[C@@H](O)[C@H]2O)c1 [NAD^+]
X-ray crystal structure, 2.3 Å: crystal structure of CrGSNOR1 under both apo- and holo-form (NAD^+-CrGSNOR1)
